PubChem BioAssay (NCI)
Values joined by “and” are separate entries in the source; they are usually repeats but may differ in a detail not shown here. Identical values can stand only once.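 Cells were grown in 96-well plates and exposed to each compound for 48 hours at five concentrations; endpoints were interpolated linearly between bracketing concentrations, or set to the highest concentration if not reached. GI50 marks 50% less growth. TGI: concentration producing complete growth inhibition.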

What follows are compounds tested on UACC-62 melanoma (assay: NCI-60 cell line screen, 48 h).

Compound	TGI	GI50
COc1ccc2c(c1)C=C([N+](=O)[O-])C(C1OC(C)(C)OC1C1COC(C)(C)O1)O2 (centres undefined)	3.72 µM	
CC(C)(C)OC(=O)Cc1ccc2c(ccn2Cc2ccccc2)c1	> 100 µM	
NC(N)=NCCCn1c2c(c3ccccc3c1=O)C(=O)c1ccccc1-2	25.7 µM	10.9 µM
CCC1(O)C(=O)OCc2c1cc1n(c2=O)Cc2cc3ccc(C=O)cc3nc2-1 (centres undefined)	3.44 µM and 3.71 µM	0.77 µM
CC(C)N(C(=O)C12CC3CC(CC(C3)C1)C2)C(C)C	> 50 µM	
CC1(C)C2CC(O)C1(C)CC2=O (centres undefined)	> 100 µM	
COc1ccc2c(c1)C(=O)c1c-2n(CCCn2ccnc2)c(=O)c2ccccc12	1.86 µM	0.403 µM
COc1cc2oc(-c3ccc(O)cc3)cc(=O)c2c(OC)c1OC	> 100 µM	
N#Cc1nc(C2OC(COC(=O)c3ccccc3)C(OC(=O)c3ccccc3)C2OC(=O)c2ccccc2)oc1N (centres undefined)	> 100 µM	
CC/C=C\C[C@@H]1C/C=C2/C(=O)C=C[C@H]2C/C=C\CCCC(=O)O1	2.66 µM	0.735 µM
Cc1ccc(S(=O)(=O)n2c(-c3ccccc3)c(-c3ccccc3)c3ccccc32)cc1	> 100 µM	
O=C(N/N=C/c1cccc(O)c1O)c1ccccc1	5.32 µM	0.902 µM
CN/N=C(/CCN1CCCC1)CC(c1ccccc1)c1c(O)c2ccccc2oc1=O (centres undefined)	> 100 µM	
COc1ccc2c(c1)CCC1C3(CCCC21C)OCCO3 (centres undefined)	38 µM	
COc1ccc(OC)c(/C=C/C(=O)N/N=C/c2ccc(Cl)cc2)c1	> 100 µM	0.058 µM
COc1ccc(C(=O)c2cc(C)c(OC)c(C)c2)c(OC)c1N(C(=O)C(Cl)Cl)C(=O)C(Cl)Cl	> 100 µM	0.0605 µM

Compound	TGI	GI50
Cc1ccc(N(C(=O)CC(=O)NN)C(=O)c2ccccc2Cl)cc1	> 100 µM	
CCN(CC)c1sc(N(CC)CC)c2c1SSSSS2	1.87 µM	0.721 µM
O=C(c1cccc(O)c1O)c1cn(Cc2ccc(F)cc2)c2cccc(O)c12	14.6 µM	4.27 µM
Nc1ncc(-c2cnn(CCO)c2)c2scc(-c3ccc(NC(=O)Nc4cccc(F)c4)cc3)c12	1.78 µM	0.37 µM
COc1cc(C2=NN(C(C)=O)C(c3ccc(OC(C)=O)cc3OC(C)=O)O2)c(OC(C)=O)c2ccccc12 (centres undefined)	9.67 µM	0.897 µM
COc1cc(OC(=O)c2c(O)cc(O)c(O)c2C)cc(C)c1C(=O)Oc1cc(C)c(C(=O)O)c(O)c1	> 100 µM	
COC(=O)Nc1nc2ccc(Oc3ccc(NC(=O)Nc4ccccc4)cc3)cc2[nH]1	4.5 µM	0.0933 µM
CN(C)P(=O)(/C(N)=N/Nc1ccc([N+](=O)[O-])cc1)N(C)C	> 100 µM	
CC(=O)OC1CC(O)C23COC(O)C1(C)C2CC(O)C1(C)C3C(=O)C(O)C2(C)C(c3ccoc3)CC3OC321 (centres undefined)	< 0.0129 µM	< 0.01 µM
Cn1cc(C(=O)c2ccccc2)ccc1=O	> 100 µM	
CCCCCCCC(CC(=O)NC(CO)C(=O)NC(CO)CC(C)C)OC(=O)CC(CCCCCCC)OC(=O)CC(CCCCCCC)OC1OC(C)C(O)C(OC2OC(C)C(O)C(OC(C)=O)C2O)C1O (centres undefined)	25.8 µM	
COc1ccc(C(C)c2cc3c(cc2OC)OCO3)cc1 (centres undefined)	> 69.2 µM	
CCc1[nH]c(=O)nc(N)c1-c1ccc(N2CCCCC2)c([N+](=O)[O-])c1	> 100 µM	
CCC#CC[C@H]1C/C=C2/C(=O)C=C[C@@H]2C/C=C\CCCC(=O)O1	1.8 µM	0.559 µM
CCN(CC)CCN1CC(O)=C(c2nc(-c3ccc(Cl)cc3)cs2)C1=N	3.53 µM	1.87 µM

What follows are compounds tested on HOP-92 NSCLC (assay: NCI-60 cell line screen, 48 h).

Compound	TGI	GI50
COc1ccc2c(c1)C=C([N+](=O)[O-])C(C1OC(C)(C)OC1C1COC(C)(C)O1)O2 (centres undefined)	37.8 µM	
CC(C)(C)OC(=O)Cc1ccc2c(ccn2Cc2ccccc2)c1	> 100 µM	
NC(N)=NCCCn1c2c(c3ccccc3c1=O)C(=O)c1ccccc1-2	47.5 µM	3.2 µM
CCC1(O)C(=O)OCc2c1cc1n(c2=O)Cc2cc3ccc(C=O)cc3nc2-1 (centres undefined)	42 µM and 84.4 µM	
CC(C)N(C(=O)C12CC3CC(CC(C3)C1)C2)C(C)C	> 50 µM	
CC1(C)C2CC(O)C1(C)CC2=O (centres undefined)	> 100 µM	
COc1ccc2c(c1)C(=O)c1c-2n(CCCn2ccnc2)c(=O)c2ccccc12	> 23.2 µM	1.03 µM
COc1cc2oc(-c3ccc(O)cc3)cc(=O)c2c(OC)c1OC	> 100 µM	
N#Cc1nc(C2OC(COC(=O)c3ccccc3)C(OC(=O)c3ccccc3)C2OC(=O)c2ccccc2)oc1N (centres undefined)	> 100 µM	
CC/C=C\C[C@@H]1C/C=C2/C(=O)C=C[C@H]2C/C=C\CCCC(=O)O1	4.97 µM	2.25 µM
Cc1ccc(S(=O)(=O)n2c(-c3ccccc3)c(-c3ccccc3)c3ccccc32)cc1	> 100 µM	
O=C(N/N=C/c1cccc(O)c1O)c1ccccc1	8.38 µM	0.329 µM
CN/N=C(/CCN1CCCC1)CC(c1ccccc1)c1c(O)c2ccccc2oc1=O (centres undefined)	41.8 µM	
COc1ccc2c(c1)CCC1C3(CCCC21C)OCCO3 (centres undefined)	35.3 µM	
COc1ccc(OC)c(/C=C/C(=O)N/N=C/c2ccc(Cl)cc2)c1	75.2 µM	9.27 µM
COc1ccc(C(=O)c2cc(C)c(OC)c(C)c2)c(OC)c1N(C(=O)C(Cl)Cl)C(=O)C(Cl)Cl	> 94 µM	0.407 µM

Compound	TGI	GI50
Cc1ccc(N(C(=O)CC(=O)NN)C(=O)c2ccccc2Cl)cc1	> 100 µM	
CCN(CC)c1sc(N(CC)CC)c2c1SSSSS2	5.92 µM	2.87 µM
O=C(c1cccc(O)c1O)c1cn(Cc2ccc(F)cc2)c2cccc(O)c12	7.44 µM	0.361 µM
Nc1ncc(-c2cnn(CCO)c2)c2scc(-c3ccc(NC(=O)Nc4cccc(F)c4)cc3)c12	0.733 µM	0.227 µM
COc1cc(C2=NN(C(C)=O)C(c3ccc(OC(C)=O)cc3OC(C)=O)O2)c(OC(C)=O)c2ccccc12 (centres undefined)	30.7 µM	2.07 µM
COc1cc(OC(=O)c2c(O)cc(O)c(O)c2C)cc(C)c1C(=O)Oc1cc(C)c(C(=O)O)c(O)c1	> 100 µM	
COC(=O)Nc1nc2ccc(Oc3ccc(NC(=O)Nc4ccccc4)cc3)cc2[nH]1	11.1 µM	0.555 µM
CN(C)P(=O)(/C(N)=N/Nc1ccc([N+](=O)[O-])cc1)N(C)C	> 100 µM	
CC(=O)OC1CC(O)C23COC(O)C1(C)C2CC(O)C1(C)C3C(=O)C(O)C2(C)C(c3ccoc3)CC3OC321 (centres undefined)	> 100 µM	0.911 µM
Cn1cc(C(=O)c2ccccc2)ccc1=O	> 100 µM	
CCCCCCCC(CC(=O)NC(CO)C(=O)NC(CO)CC(C)C)OC(=O)CC(CCCCCCC)OC(=O)CC(CCCCCCC)OC1OC(C)C(O)C(OC2OC(C)C(O)C(OC(C)=O)C2O)C1O (centres undefined)	22.8 µM	
COc1ccc(C(C)c2cc3c(cc2OC)OCO3)cc1 (centres undefined)	36 µM	
CCc1[nH]c(=O)nc(N)c1-c1ccc(N2CCCCC2)c([N+](=O)[O-])c1	> 100 µM	
CCC#CC[C@H]1C/C=C2/C(=O)C=C[C@@H]2C/C=C\CCCC(=O)O1	6.33 µM	1.94 µM
CCN(CC)CCN1CC(O)=C(c2nc(-c3ccc(Cl)cc3)cs2)C1=N	8.65 µM	1.49 µM

Each compound was assayed on HOP-62 NSCLC (assay: NCI-60 cell line screen, 48 h).

Compound	TGI	GI50
COc1ccc2c(c1)C=C([N+](=O)[O-])C(C1OC(C)(C)OC1C1COC(C)(C)O1)O2 (centres undefined)	37.4 µM	
CC(C)(C)OC(=O)Cc1ccc2c(ccn2Cc2ccccc2)c1	> 100 µM	
NC(N)=NCCCn1c2c(c3ccccc3c1=O)C(=O)c1ccccc1-2	3.64 µM	0.695 µM
CCC1(O)C(=O)OCc2c1cc1n(c2=O)Cc2cc3ccc(C=O)cc3nc2-1 (centres undefined)	14.9 µM and 1.56 µM	0.476 µM
CC(C)N(C(=O)C12CC3CC(CC(C3)C1)C2)C(C)C	> 50 µM	
CC1(C)C2CC(O)C1(C)CC2=O (centres undefined)	> 100 µM	
COc1ccc2c(c1)C(=O)c1c-2n(CCCn2ccnc2)c(=O)c2ccccc12	0.781 µM	0.137 µM
COc1cc2oc(-c3ccc(O)cc3)cc(=O)c2c(OC)c1OC	> 100 µM	
N#Cc1nc(C2OC(COC(=O)c3ccccc3)C(OC(=O)c3ccccc3)C2OC(=O)c2ccccc2)oc1N (centres undefined)	> 100 µM	
CC/C=C\C[C@@H]1C/C=C2/C(=O)C=C[C@H]2C/C=C\CCCC(=O)O1	3.68 µM	1.07 µM
Cc1ccc(S(=O)(=O)n2c(-c3ccccc3)c(-c3ccccc3)c3ccccc32)cc1	> 100 µM	
O=C(N/N=C/c1cccc(O)c1O)c1ccccc1	> 100 µM	1.52 µM
CN/N=C(/CCN1CCCC1)CC(c1ccccc1)c1c(O)c2ccccc2oc1=O (centres undefined)	> 100 µM	
COc1ccc2c(c1)CCC1C3(CCCC21C)OCCO3 (centres undefined)	28.4 µM	
COc1ccc(OC)c(/C=C/C(=O)N/N=C/c2ccc(Cl)cc2)c1	> 70.9 µM	0.102 µM
COc1ccc(C(=O)c2cc(C)c(OC)c(C)c2)c(OC)c1N(C(=O)C(Cl)Cl)C(=O)C(Cl)Cl	> 100 µM	0.0666 µM
